Experimental data taken from patent US20070270350A1, “Methods and Compositions for the Prevention and Treatment of Inflammatory Diseases or Conditions” (MUSC FOUNDATION FOR RESEARCH DEVELOPMENT, priority 2003, published 2007).
One block for each molecule: values may come before it.

Experiments:
[1] = system: iNOS; assay: LPS/IFN-induced NO production and iNOS gene expression in primary astrocytes; format: cell-based, rat; conditions: for effect on D-PDMP mediated inhibition of NO production: glycosphingolipid 5 and 10 μM added with D-PDMP 50 μM, 0.5 hr before LPS/IFN
[2] = system: iNOS; assay: LPS/IFN-induced NO production and iNOS expression in C6 glioma cells; format: cell-based, rat; conditions: exogenous glycosphingolipid with D-PDMP
Procedure: C6 rat glioma cells obtained from ATCC were maintained in Dulbecco's modified Eagle's medium (DMEM) (GIBCO, CA) containing 10% fetal bovine serum (FBS) (GIBCO) and 10 ? g/ml gentamicin. All the cultured cells were maintained at 37° C. in 5% CO2/95% air. At 80% confluency, the cells were incubated with serum free DMEM medium for 24 h prior to the incubation with LPS/IFN ? and other chemicals. Assay for NO production. Cells were cultured in 12-well plastic tissue culture plates. After the appropriate treatment, production of NO was determined by an assay of the culture supernatant for nitrite (Green et al., 1982). Briefly, 100 μl of culture supernatant was allowed to react with 100 μl of Griess reagent. The optical density of the assay samples was measured spectrophotometrically at 570 nm. Nitrite concentrations were calculated from a standard curve derived from the reaction of NaNO2 in fresh media. Western Blot Analysis. […] The protein concentration of samples was determined with the detergent compatible protein assay reagent (Bio-Rad Laboratories, CA) using bovine serum albumin (BSA) as the standard. Sample was boiled for 3 min with 0.1 volumes of 10% O-mercaptoethanol and 0.5% bromophenol blue mix. Fifty μg of total cellular protein was resolved by electrophoresis in 8 or 12% polyacrylamide gels, electro-transferred to polyvinylidene difluoride (PVDF) filter and blocked with Tween 20 containing Tris-buffered saline [TBST; 10 mM Trizma base (pH 7.4), 1% Tween 20, and 150 mM NaCl] with 5% skim milk. After incubation with antiserum against iNOS (BD PharMingen, CA), or hRas (Upstate Biotechnology, CA), or phospho-specific MAPK (p42/44) (Signal Transduction), in PVDF buffer for 2 h at room temperature, the filters were washed 3 times with TBST buffer and then incubated with horseradish peroxidase conjugated anti-rabbit or mouse IgG for 1 h. The membranes were autoradiographed by using ECL-plus (Amersham Pharmacia Biotech) after washing with TBST buffer. RT-PCR amplification. […] PCR amplification was conducted in 25 ? l of reaction mixture with 1.0 ? l of cDNA, […] and under the manufacturer's Taq polymerase conditions (Takara, […] Shuzo Co. Ltd, Japan). The sequence of primers used for PCR amplification are as follows; iNOS, (Forward-[NT], Reverse-[NT]), GalT-2 (Forward-[NT], Reverse-[NT]), GAPDH (Forward-[NT], Reverse-[NT]).

[3] = system: iNOS; assay: LPS-induced iNOS expression and iNOS promoter activity in primary astrocytes (AICAR); format: cell-based, rat; conditions: GGPP 10 μM, FPP 10 μM, mevalonate 10 mM with AICAR 1 mM
Procedure: Immunoblot Analysis: Cells were harvested in ice-cold lysis buffer (50 mM Tris-HCl, pH 7.4, containing 50 mM NaCl, 1 mM EDTA, 0.5 mM EGTA, 10% glycerol and protease inhibitor cocktail) and protein was estimated using Bradford reagent (Bio-Rad, USA). Fifty microgram of total protein/lane was separated by SDS-PAGE and blotted to nitrocellulose (Amersham Pharmacia Biotech). Blots were blocked for 1 h in 5% nonfat dry milk-TBS-0.1% Tween 20 and incubated overnight with primary antibody (1:1000) in 5% BSA-TBS-0.1% Tween 20 at 4° C. This was followed by incubation of 1 h with appropriate secondary peroxidase conjugated antibody (1:10,000, Sigma). Immunoreactivity was detected using the enhanced chemiluminescence detection method according to the manufacturer's instructions (Amersham Pharmacia Biotech) and subsequent exposure of the membrane to X-ray film. Antisense experiments: To decrease the levels of endogenous AMPK, astrocytes were pretreated for 48 h with 25 μm (of phosphothiorated antisense (AS) oligonucleotide ([NT]) directly against both the ? α1 and α2 ? subunits of AMPK (Culmsee et al., 2001) ? ? ? missense (MS) oligonucleotide ([NT]) was used in control cultures. Oligonucleotides were transfected with OligofectamineTM reagent as per manufacturer's instructions. Northern blot, gene array analysis and RT-PCR for cytokines expression: Total RNA was extracted with Trizol (Gibco) according to the manufacturer's protocol. Northern blot for iNOS was performed with 15 μg of RNA per reaction as described previously (Pahan et al., 1997). β-actin was used as control for RNA loading. Gene expression array for inflammatory cytokines (TNFα, IL-1β, IL-6 and IFN-γ) was used according to the manufacturer's protocol (Superarray). Signal quantitation was determined using imaging densitomter (Bio-Rad Lab, Hercules, Calif.). For RT-PCR, RNA was isolated from treated rat brain cerebral cortex by extracting in Trizol as above. cDNA was prepared from 5 μg of total RNA using poly dT as a primer and Moloney murine leukemia virus reverse transcriptase (Promega) as per manufacturer's instructions. 2 μl of cDNA was used to amplify the following products [given as product name, expected size, and forward (F) and reverse (R) primers used]: iNOS, 730 bp. ([NT]-1β, 623 bp. ([…]-α, 473 bp. ([…], 528 bp. […] Transcriptional assays: Primary astrocytes or microglial cell line (BV2) were transiently transfected with NF- ? B-or iNOS-luciferase reporter gene with ? -galactosidase in the presence or absence of dominant negative AMPKα2 or HA-IKK ? by lipofectamine-2000 (astrocytes) and lipofectamine-Plus (BV2, Invitrogen) according to the manufacturer instructions. pcDNA3 was used to normalize all groups to equal amounts of DNA. Luciferase activity was determined using a luciferase kit (Promega).

[4] = system: KA-treated rats; assay: KA-induced seizure model (epilepsy model), rat hippocampus; format: in vivo; conditions: 3 days after KA
Procedure: FIG. 45. Experimental design for the use of statins as a therapeutic for kinic acid induced seizures (epilepsy model).
FIG. 46. […] The rats were orally pre-treated (7 days before) with atorvastatin (LP; 10 mg/kg) prior to KA (10 mg/kg, i.p.). At 3 days after KA injection, neuronal cell death in hippocampus was examined using cresyl violet stain.
FIG. 47. […] The rats were orally pre-treated (7 days before) with atorvastatin (LP; 10 mg/kg) prior to KA (10 mg/kg, i.p.). At 3 days after KA injection, infiltration of macrophages in the CA1 and CA3 regions of the hippocampus was examined using immunofluorescent labeling against for ED-1, as a marker of monocytes.
The rats were orally pre-treated (7 days before) with atorvastatin (LP; 10 mg/kg) prior to KA (10 mg/kg, i.p.). At 3 days after KA injection, neuronal cell death in the CA1 (A) and CA3 (B) regions of the hippocampus was examined using TUNNEL assay.
FIG. 49. […] The rats were orally pre-treated (7 days before) with lovastatin (Lov; 10 mg/kg) prior to KA (10 mg/kg, i.p.). At 3 days after KA injection, neuronal cell death in hippocampus was examined using cresyl violet stain.
(§1) FIG. 50A-C. […] The rats were orally pre-treated (7 days before) with atorvastatin (LP; 10 mg/kg) prior to KA (10 mg/kg, i.p.). At 3 days after KA injection, the expression of inflammatory genes (TNF-α, IL-1β, and iNOS) in hippocampus using real time PCR. The expression of each gene was normalized with GAPDH expression.
as §1, with “51A-C.” for “50A-C.”, “lovastatin (Lov;” for “atorvastatin (LP;”
Seizure index: stage 1, facial clonus; stage 2, nodding; stage 3, forelimb clonus; stage 4, forelimb clonus with rearing; stage 5, rearing, jumping, and falling. The rats were orally pre-treated (7 days before) with lovastatin or atorvastatin (Lov or LP; 10 mg/kg) prior to KA (10 mg/kg, i.p.).

[5] = Comparison of biology of IFN-β, GA and statin + GSNO (Table 2)
Text: FIGS. 28-52 provide additional data that show the effectiveness of statins in treating a variety of inflammatory diseases such as multiple sclerosis, spinal cord injury, stroke, and kinic acid induced seizures. Additionally, Table 2 provides data concerning the treatment of multiple sclerosis (MS) with statins as compared to two other approved MS drugs.

[6] = system: Rat Primary Astrrocytes; conditions: LPS 1.0 μg/ml, 24 h
[7] = system: Microglia; conditions: 10 μM lovastatin or 5 mM NaPA 8 h, LPS 1.0 μg/ml, 24 h
[8] = system: Macrophages; conditions: 10 μM lovastatin or 5 mM NaPA 8 h, LPS 1.0 μg/ml, 24 h
[9] = PD98059 pretreatment 0.5 hr before LPS, 24 hrs
[10] = 10 mg/kg orally, 7 days before KA

Molecule: COc1cccc(-c2cc(=O)c3ccccc3o2)c1N [PD98059]
NO production [1, 9]: inhibition
iNOS expression [1, 9]: inhibition

Molecule: Glucosylceramide [GluCer]
effect on D-PDMP mediated inhibition of NO production ([1]; 24 hrs): did not reverse
effect on D-PDMP inhibition of NO production [2]: no effect
effect on D-PDMP inhibition of iNOS mRNA and protein expression [2]: no effect

Molecule: 5′-CGCTTGAGCGCAGACATCTT-3′ (chemistry not given here) [antisense DNA oligomer, 20-mer antisense oligonucleotide targeted against rat lactosylceramide synthase (GalT-2)]
iNOS mRNA and protein levels ([1]; GalT-2 antisense 200 nM oligo, stimulated 2 d after transfection, 6 hrs mRNA, 24 hrs protein): reduced significantly
LPS/IFN-mediated NO production ([1]; GalT-2 antisense 200 nM oligo, stimulated 2 d after transfection, 24 hr): reduced significantly

effect on inhibitory effect of AICAR on LPS induced iNOS-luciferase activity [3]: did not reverse
Molecule: CC(O)(CCO)CC(=O)O (stereo not shown) [mevalonate]

Molecule: galactosylceramide [GalCer]
effect on D-PDMP mediated inhibition of NO production ([1]; 24 hrs): did not reverse

Molecule: CC(C)c1c(C(=O)Nc2ccccc2)c(-c2ccccc2)c(-c2ccc(F)cc2)n1CC[C@@H](O)C[C@@H](O)CC(=O)O [Atorvastatin, atorvastatin]
apoptosis induced by KA in hippocampus (TUNNEL assay, CA1 and CA3) [4, 10]: inhibited
infiltration of macrophages induced by KA in hippocampus (ED-1) [4, 10]: inhibited
KA-induced neuronal cell death in hippocampus (cresyl violet stain) ([4]; statin 10 mg/kg orally, 7 days before KA 10 mg/kg i.p.): inhibited
expression of inflammatory genes (TNF-α, IL-1β, and iNOS) induced by KA in hippocampus (real time PCR) ([4]; statin 10 mg/kg orally, 7 days before KA): inhibited

Molecule: glatiramer acetate [GA]
Decrease expression of adhesion molecules [5]: No
Decrease inflammatory cytokines [5]: Yes
Decreased expression of MHCII [5]: No
Excludes leukocytes from entering CNS [5]: No
Inhibition of MMPs [5]: No
Inhibition of chemokine expression [5]: No
Inhibition of clonal expression of co-stimulatory molecules [5]: Yes
Interferences with T-cell activation [5]: Yes
Leukocyte trafficking across the blood brain barrier (BBB) [5]: No
Neuroprotection [5]: Yes
Protection of BBB [5]: No
Reduced level of co-stimulatory molecules [5]: No
Th1 to Th2 deviation [5]: Yes

effect on inhibitory effect of AICAR on LPS induced iNOS-luciferase activity [3]: did not reverse
Molecule: CC(C)=CCC/C(C)=C/CC/C(C)=C/CC/C(C)=C/COP(=O)(O)OP(=O)(O)O [GGPP, geranylgeranyl pyrophosphate]

Molecule: O=C([O-])Cc1ccccc1.[Na+] [NaPA]
TNF-α ([6]; 10 μM lovastatin or 5 mM NaPA 8 h, LPS only 5.3 +/− 0.8): 0.4 +/− 0.06 ng/24 h/mg protein
Il-1β ([6]; 10 μM lovastatin or 5 mM NaPA 8 h, LPS only 10.4 +/− 1.5): 1.1 +/− 0.2 ng/24 h/mg protein
IL-6 ([6]; 10 μM lovastatin or 5 mM NaPA 8 h, LPS only 136.5 +/− 16.8): 1.1 +/− 0.2 ng/24 h/mg protein
NO ([6]; 10 μM lovastatin or 5 mM NaPA 8 h serum free, LPS only 25.3 +/− 3.2): 5.4 +/− 0.6 n mol/24 h/mg protein
TNF-α ([7]; LPS only 14.5 +/− 2.1): 1.3 +/− 0.2 ng/24 h/mg protein
Il-1β ([7]; LPS only 28.2 +/− 3.4): 2.4 +/− 0.2 ng/24 h/mg protein
NO ([7]; LPS only 81.2 +/− 6.9): 6.9 +/− 0.9 n mol/24 h/mg protein
IL-6 ([7]; LPS only 295.6 +/− 33.5): 9.3 +/− 1.2 ng/24 h/mg protein
TNF-α ([8]; LPS only 18.6 +/− 2.3): 1.7 +/− 0.2 ng/24 h/mg protein
Il-1β ([8]; LPS only 34.6 +/− 4.5): 3.1 +/− 0.4 ng/24 h/mg protein
NO ([8]; LPS only 118.5 +/− 12.5): 9.5 +/− 0.7 n mol/24 h/mg protein
IL-6 ([8]; LPS only 350.0 +/− 27.6): 10.2 +/− 1.4 ng/24 h/mg protein

effect on inhibitory effect of AICAR on LPS induced iNOS-luciferase activity [3]: did not reverse
Molecule: CC(C)=CCC/C(C)=C/CC/C(C)=C/COP(=O)(O)OP(=O)(O)O [FPP, farnesyl pyrophosphate]
